Key:
[1] = disclosed in European patent publication 9912; cited from earlier work
[2] = tested on: Spontaneously hypertensive rats; test: Systolic blood pressure and heart rate by modified tail cuff method in spontaneously hypertensive rats; assay type: in vivo; details: 0.3 mg/kg p.o.; for %Change in Systolic Blood Blood: initial blood pressure 180±7mmHg; for %Change in Heart Rate: initial heart rate 507±5beats/min
Method: Systolic blood pressures were recorded by a modification of the tail cuff method described by I.M. Claxton, M.G. Palfreyman, R.H. Poyser, R.L. Whiting, European Journal of Pharmacology, 37, 179 (1976).
W+W BP recorder, model 8005, was used to display pulses. Prior to all measurments rats were placed in a heated environment (33.5±0.5°C) before transfer to a restraining cage. Each determination of blood pressure was the mean of at least 6 readings. Spontaneously hypertensive rats (ages 12-18 weeks) with systolic blood pressures >170 mmHg were considered hypertensive.

[3] = 5 rats, 2 hours post dose (2 rats had no measurable pulse)
[4] = 5 rats, 4 hours post dose (3 rats had no measurable pulse)
[5] = 5 rats, 6 hours post dose (2 rats had no measurable pulse)
[6] = 24 hours post dose (4 rats only)

Compound | blood pressure lowering activity [1] | %Change in Systolic Blood Blood ([2]; 5 rats, 1 hour post dose) | %Change in Systolic Blood Blood [2, 3] | %Change in Systolic Blood Blood [2, 4] | %Change in Systolic Blood Blood [2, 5] | %Change in Heart Rate ([2]; 5 rats, 1 hour post dose) | %Change in Heart Rate [2, 3] | %Change in Heart Rate [2, 4] | %Change in Heart Rate [2, 5] | %Change in Systolic Blood Blood [2, 6] | %Change in Heart Rate [2, 6]
CC1(C)Oc2ccc(C#N)cc2[C@@H](N2CCCC2)[C@@H]1O (relative stereo) [6-cyano-3,4-dihydro-2,2-dimethyl-trans 4-pyrrolidino-2H-benzo[b]pyran-3-ol] | has blood pressure lowering activity | – | – | – | – | – | – | – | – | – | –
CC1(C)Oc2ccc(C#N)cc2[C@@H](N2CCCC2=O)[C@@H]1O (relative stereo) [Compound (1) of Example (3S,4R)-isomer, 6-cyano-3,4-dihydro-2,2-dimethyl-trans-4-(2-oxo-1-pyrrolidinyl)-2H-benzo[b]pyran-3-ol] | – | -59 ± 4% | -52 ± 7% | -32% | -28 ± 8% | -2 ± 2% | -6 ± 3% | -15% | -5 ± 1% | -14 ± 7% | -3 ± 2%
CC1(C)Oc2ccc(C#N)cc2[C@@H](N2CCCC2)[C@@H]1O (single isomer, unassigned; isomer 6) [(+)-isomer, 6-cyano-3,4-dihydro-2,2-dimethyl-trans 4-pyrrolidino-2H-benzo[b]pyran-3-ol] | greater blood pressure lowering activity than the (-)- isomer | – | – | – | – | – | – | – | – | – | –

From patent EP0120428A1, “Benzopyran isomers” (BEECHAM GROUP PLC, priority 1983, dated 1984)
